Data as given in patent US8138212B2, “Synergistic microbicidal compositions” (Rohm and Haas Company, priority 2009, dated 2012).
Where two headings read alike, the source gives them in different places.

Assays:
Format in all cases: cell-based
[1] = tested on: Candida albicans (C. albicans—ATCC 10231); assay: Synergy test, microtiter plate high resolution MIC assay, yeast; settings: for MIC: Candida albicans
Excerpt: (§1) One skilled in the art will recognize that the sensitivity of other microorganisms to the particular combinations will vary and, as a result, the concentrations, the ratios, for each, or both, of the compounds may vary from those detailed in these examples. The concentrations and ratios may also vary under different test conditions or with different test methods. One measure of synergy is the industrially accepted method described by Kull, […]. and Mayer, R. L., in Applied Microbiology 9:538-541 (1961), using the ratio determined by the formula: Qa/QA+Qb/QB=Synergy Index (“SI”) wherein: • QA=concentration of compound A (first component) in ppm, acting alone, which produced an end point (MIC of Compound A). • Qa=concentration of compound A in ppm, in the mixture, which produced an end point. • QB=concentration of compound B (second component) in ppm, acting alone, which produced an end point (MIC of Compound B). • Qb=concentration of compound B in ppm, in the mixture, which produced an end point. When the sum of Qa/QA and Qb/QB is greater than one, antagonism is indicated. […] The lower the SI, the greater is the synergy shown by that particular mixture. The minimum inhibitory concentration (MIC) of a microbicide is the lowest concentration tested under a specific set of conditions that prevents the growth of the tested microorganisms. Synergy tests were conducted using standard microtiter plate assays with media designed for optimal growth of the test microorganism. Minimal salt medium supplemented with 0.2% glucose and 0.1% yeast extract ([…] medium) was used for testing bacteria; Potato Dextrose Broth (PDB medium) was used for testing yeast and mold. In this method, a wide range of combinations of microbicides and other personal care raw materials was tested by conducting high resolution MIC assays in the presence of various concentrations of MIT, or BIT. […] The synergy of the combinations of the present invention was determined against a bacterium, Escherichia coli (E. coli-ATCC #8739), and/or a yeast, Candida albicans (C. albicans-ATCC 10231), and/or a mold, Aspergillus niger (A. niger-ATCC 16404). The bacteria were used at a concentration of about 5×10^6 bacteria per mL and the yeast and mold at 5×10^5 fungi per mL. These microorganisms are representative of natural contaminants in many consumer and industrial applications. […] (yeast and mold) or 30° C. (bacteria). […] In each test, First Component (A) was MIT and the Second Component (B) was the other microbicide, formulation ingredient, or raw material.

[2] = tested on: Escherichia coli (E. coli—ATCC #8739); assay: Synergy test, microtiter plate high resolution MIC assay, bacterium; settings: E. coli 8739, M9GY medium; for MIC: Escherichia coli, read-out: QB: MIC of second component (B) acting alone
Excerpt: as §1

[3] = tested on: Aspergillus niger (A. niger—ATCC 16404); assay: Synergy test, microtiter plate high resolution MIC assay, mold; settings: for MIC: Aspergillus niger
Excerpt: as §1

[4] = C. albicans 10231, PDB medium, 1 day
[5] = C. albicans 10231, PDB medium, 2 days
[6] = C. albicans 10231, PDB medium, 3 days
[7] = A. niger 16404, PDB medium, 3 days
[8] = A. niger 16404, PDB medium, 6 days
[9] = A. niger 16404, PDB medium, 10 days
[10] = ATCC16404, 72 h, A. niger 16404, PDB medium, 3 days, read-out: QB: MIC of second component (B) acting alone
[11] = ATCC10231, 48 h, C. albicans 10231, PDB medium, 2 days, read-out: QB: MIC of second component (B) acting alone
[12] = ATCC10231, 24 h, C. albicans 10231, PDB medium, 1 day, read-out: QB: MIC of second component (B) acting alone
[13] = ATCC16404, 240 h, A. niger 16404, PDB medium, 10 days, read-out: QB: MIC of second component (B) acting alone

| SMILES | SI (Synergy Index, Qa/QA+Qb/QB) [1, 4] | SI (Synergy Index, Qa/QA+Qb/QB) [1, 5] | SI (Synergy Index, Qa/QA+Qb/QB) [1, 6] | SI (Synergy Index, Qa/QA+Qb/QB) ([2]; 1 day) | SI (Synergy Index, Qa/QA+Qb/QB) [3, 7] | SI (Synergy Index, Qa/QA+Qb/QB) [3, 8] | SI (Synergy Index, Qa/QA+Qb/QB) [3, 9] | MIC ([2]; ATCC8739, 24 h, 1 day) [µg/mL] | MIC [1, 11] [µg/mL] | further results |
| --- | --- | --- | --- | --- | --- | --- | --- | --- | --- | --- |
| O=c1[nH]sc2ccccc12 [BIT, 1,2-benzisothiazolin-3-one] | 1.00 | 1.00 | 1.00 | 1.00 | 1.00 | 1.00 | 1.00 |  |  | QA: MIC of first component (A) acting alone [1, 4]: 20 ppm; QA: MIC of first component (A) acting alone ([2]; 1 day): 15 ppm; QA: MIC of first component (A) acting alone ([2]; 2 days): 15 ppm; SI (Synergy Index, Qa/QA+Qb/QB) ([2]; 2 days): 1.00; QA: MIC of first component (A) acting alone ([2]; 3 days): 15 ppm; SI (Synergy Index, Qa/QA+Qb/QB) ([2]; 3 days): 1.00; QA: MIC of first component (A) acting alone [3, 8]: 20 ppm; QA: MIC of first component (A) acting alone [3, 9]: 20 ppm |
| O=C(O)CN(CCN(CC(=O)O)CC(=O)O)CCN(CC(=O)O)CC(=O)O [DTPA, diethylene triamine pentacetic acid] | 1.00 |  |  |  | 1.00 | 1.00 |  |  |  | QB: MIC of second component (B) acting alone [1, 4]: 2000 ppm; QB: MIC of second component (B) acting alone [3, 7]: 800 ppm; QB: MIC of second component (B) acting alone [3, 8]: 2000 ppm |
| O=C(O)CC(NC(CC(=O)O)C(=O)O)C(=O)O (stereo not shown) [IDS, iminodisuccinate] |  | 1.00 |  |  | 1.00 |  |  |  |  | QB: MIC of second component (B) acting alone [3, 7]: 5000 ppm |
| CC(C(=O)O)N(CC(=O)O)CC(=O)O (stereo not shown) [MDGA, methyl glycine diacetic acid] |  |  | 1.00 |  |  |  | 1.00 |  |  |  |
| Cn1sccc1=O [MIT, 2-methyl-4-isothiazolin-3-one] | 1.00 | 1.00 | 1.00 |  | 1.00 | 1.00 | 1.00 |  |  | MIC ([1]; ATCC10231, 24 h, read-out: QA: MIC of first component (A) acting alone): 200 µg/mL; MIC ([1]; ATCC10231, 48 h, read-out: QA: MIC of first component (A) acting alone): 200 µg/mL; MIC ([1]; ATCC10231, 72 h, read-out: QA: MIC of first component (A) acting alone): 200 µg/mL; QA: MIC of first component (A) acting alone [3, 7]: 200 ppm; MIC ([3]; ATCC16404, 72 h, read-out: QA: MIC of first component (A) acting alone, A. niger 16404, PDB medium, 3 days): 300 µg/mL; MIC ([3]; ATCC16404, 144 h, read-out: QA: MIC of first component (A) acting alone, A. niger 16404, PDB medium, 6 days): 300 µg/mL; MIC ([3]; ATCC16404, 240 h, read-out: QA: MIC of first component (A) acting alone, A. niger 16404, PDB medium, 10 days): 300 µg/mL |
| COc1ccc(C(=O)O)cc1 [anisic acid, 4-methoxybenzoic acid] |  |  |  | 1.00 | 1.00 |  |  | 8000 |  | MIC [3, 10]: 2000 µg/mL |
| CCCCCCCCCC(=O)O [capric acid, decanoic acid] |  | 1.00 |  |  |  | 1.00 |  |  | 2000 | SI (Synergy Index, Qa/QA+Qb/QB) ([2]; 3 days): 1.00; MIC ([2]; ATCC8739, 72 h, 3 days): 10000 µg/mL; MIC ([3]; ATCC16404, 144 h, A. niger 16404, PDB medium, 6 days, read-out: QB: MIC of second component (B) acting alone): 5000 µg/mL |
| CCCCCCCCC(O)CO (stereo not shown) [decylene glycol, 1,2-decanediol] | 1.00 | 1.00 |  |  | 1.00 |  |  |  | 2000 | MIC [1, 12]: 2000 µg/mL; MIC [3, 10]: 2000 µg/mL |
| O=C(O)/C=C\C(=O)O [maleic acid, 2-butenedioic acid] |  | 1.00 |  | 1.00 |  |  |  | 8000 |  |  |
| CC(O)COc1ccccc1 (stereo not shown) [phenoxypropanol, propylene glycol phenyl ether] |  |  | 1.00 |  | 1.00 |  |  |  |  | MIC ([1]; ATCC10231, 72 h, C. albicans 10231, PDB medium, 3 days, read-out: QB: MIC of second component (B) acting alone): 5000 µg/mL; MIC [3, 10]: 3000 µg/mL |
| O=P(O)(O)O[C@H]1[C@H](OP(=O)(O)O)[C@@H](OP(=O)(O)O)[C@H](OP(=O)(O)O)[C@@H](OP(=O)(O)O)[C@H]1OP(=O)(O)O [phytic acid, inositol hexaphosphoric acid] |  | 1.00 |  | 1.00 |  |  | 1.00 | 5000 | 3000 | MIC [3, 13]: 20000 µg/mL |
| CCC(=O)O [propionic acid, ethanecarboxylic acid] | 1.00 | 1.00 |  | 1.00 |  |  | 1.00 | 5000 | 2000 | MIC [1, 12]: 2000 µg/mL; MIC [3, 13]: 500 µg/mL |
